From patent US6090786A, “Serine proteases, their activity and their synthetic inhibitors” (priority 1994, dated 2000)
Counter-ions that a name gives are not always drawn. Like-named read-outs stand apart in the source and are kept apart here. No end group written: not given here.

What was measured:
DPPIV [1] = biological target: T1, DPPIV (Homo sapiens, UniProt P27487); test: biochemical; assay type: biochemical
T1 construct: from tissue; host or cells: prostasomes from human seminal plasma, purified on immobilized adenosine deaminase
T1 sequence (P27487 whole entry): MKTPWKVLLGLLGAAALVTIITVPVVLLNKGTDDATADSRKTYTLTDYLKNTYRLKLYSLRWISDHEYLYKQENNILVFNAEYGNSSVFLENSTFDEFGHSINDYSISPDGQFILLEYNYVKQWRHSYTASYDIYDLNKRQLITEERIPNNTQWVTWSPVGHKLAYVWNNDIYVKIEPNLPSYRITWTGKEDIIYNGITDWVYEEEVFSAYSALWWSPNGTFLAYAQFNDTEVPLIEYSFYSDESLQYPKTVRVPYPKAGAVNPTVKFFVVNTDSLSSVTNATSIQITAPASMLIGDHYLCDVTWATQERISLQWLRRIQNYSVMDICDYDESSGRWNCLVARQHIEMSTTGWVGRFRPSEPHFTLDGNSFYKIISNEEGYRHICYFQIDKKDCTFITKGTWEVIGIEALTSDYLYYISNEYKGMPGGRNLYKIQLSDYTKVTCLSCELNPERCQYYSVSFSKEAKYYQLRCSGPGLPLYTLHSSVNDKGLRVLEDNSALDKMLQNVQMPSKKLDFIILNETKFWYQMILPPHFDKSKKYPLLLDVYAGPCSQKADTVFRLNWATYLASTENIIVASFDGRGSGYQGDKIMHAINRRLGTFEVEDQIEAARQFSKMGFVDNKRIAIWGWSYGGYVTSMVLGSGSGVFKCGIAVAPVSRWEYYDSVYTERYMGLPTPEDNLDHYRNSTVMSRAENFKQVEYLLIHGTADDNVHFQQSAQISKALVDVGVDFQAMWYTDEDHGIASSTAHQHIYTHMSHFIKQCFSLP
Procedure: (§1) All enzymatic reactions were carried out in 50 mM Tris.HCl buffer pH 8.3 at 37° C. with Gly-Pro-4-Me-2-naphtylamine.HCl as substrate. One activity unit is defined as the amount of enzyme which catalyzes the conversion of 1 micromole of substrate per minute at 37° C. All experiments were carried out with the same stock solution of DPPIV containing 1.8 units/ml. The enzyme was diluted (usually 1/200 or 1/500) in reaction buffer immediately before the experiment to a suitable concentration so as not to consume more that 10% of the substrate during the incubation period.
The remaining activity was determined by adding 5 microliter of a 1 mM solution of Gly-Pro-4-Me-2-naphtylamine.HCl. The reaction mixture containing enzyme, substrate and inhibitor was incubated for 20 min at 37° C. The reaction was stopped by addition of 0.5 ml 100 mM citrate pH 4.0. The fluorescence of the sample was measured within 2 h after quenching. The measurements were done in duplicate and corrected for background fluorescence using a blanc with exactly the same composition except that the citrate solution was added before the substrate.

DPPIV [2] = biological target: T1, DPPIV; assay type: biochemical; details: inhibitor 0.1 or 0.5 mM, 37° C.; k+ = kobs/[I]o
Procedure: as §1
The kinetics of inactivation were measured by adding an appropriate concentration of inhibitor (0.1 or 0.5 mM) to 0.5 ml of enzyme in reaction buffer at 37° C. and determining the activity at various time points after mixing. To achieve this, 25 microliter samples were withdrawn and diluted […] in 2 mM Gly-Pro-4-Me-2-naphthylamine.HCl. The reaction was quenched with citrate after 10 to 15 min and the fluorescence was determined. The dilution in an excess of substrate reduced the velocity of inhibitor binding by a factor of 20. The decrease in fluorescence with time was fitted with the equation of a monoexponential decay yielding the pseudo-first order rate constant for binding (kobs) in the exponent. The second order rate constant (k+) was calculated as follows: k+ =kobs /[I]o where [I]o is the concentration of inhibitor in the incubation mixture.

DPPIV [3] = biological target: T1, DPPIV; test: Stability of the inhibitor-DPPIV adduct; assay type: biochemical; details: DPPIV incubated with 0.5 mM inhibitor 1 hour, excess removed by gel filtration
Procedure: The phosphorylated enzyme is expected to hydrolyze slowly by action of solvent or nucleophilic groups on the enzyme.
The stability of the adduct was determined as follows. […] Excess inhibitor was removed by gel filtration on a PD 10 column (Pharmacia Biotech, Uppsala, Sweden) previously equilibrated with 50 mM Tris.HCl buffer, pH 8.3.

[4] = biological target: T2, purified prolyl oligopeptidase (Homo sapiens, UniProt P48147); test: biochemical
T2 construct: from tissue; host or cells: human blood cells: platelets or mononuclear cells, not specified
T2 sequence (P48147 1-710): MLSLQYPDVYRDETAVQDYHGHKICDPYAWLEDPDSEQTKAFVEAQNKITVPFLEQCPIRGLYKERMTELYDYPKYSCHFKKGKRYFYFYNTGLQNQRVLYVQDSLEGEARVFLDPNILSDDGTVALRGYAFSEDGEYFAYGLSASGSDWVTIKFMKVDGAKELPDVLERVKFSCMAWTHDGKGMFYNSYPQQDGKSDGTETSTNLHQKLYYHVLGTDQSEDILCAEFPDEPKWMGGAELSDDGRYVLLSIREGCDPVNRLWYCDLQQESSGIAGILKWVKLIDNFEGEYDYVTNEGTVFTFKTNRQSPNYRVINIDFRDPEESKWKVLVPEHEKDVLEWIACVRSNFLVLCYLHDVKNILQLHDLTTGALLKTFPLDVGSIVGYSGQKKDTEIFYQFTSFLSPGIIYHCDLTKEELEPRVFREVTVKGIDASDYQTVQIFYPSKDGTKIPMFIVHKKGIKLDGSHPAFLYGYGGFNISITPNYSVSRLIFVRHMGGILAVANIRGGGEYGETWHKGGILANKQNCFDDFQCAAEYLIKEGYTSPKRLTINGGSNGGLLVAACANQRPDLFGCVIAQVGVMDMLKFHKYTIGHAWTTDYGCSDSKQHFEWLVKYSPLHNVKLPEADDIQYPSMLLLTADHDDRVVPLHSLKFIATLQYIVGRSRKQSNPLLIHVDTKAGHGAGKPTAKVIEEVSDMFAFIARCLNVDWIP
Procedure: (§2) The remaining activity was determined by adding 5 μl substrate (Z-Gly-Pro-AMC, 5.6 mM) and measurement of the fluorescence at λex 370 nm, λem 440 nm after a further 20 min incubation at 37° C. The inhibitors were dissolved in methanol and control experiments were performed to correct for the presence of the solvents used. The IC50 value was derived from a plot, joining the residual activity and the dosis of the respective compounds (at least eight concentrations tested). The Ki values were derived from a direct linear plot (Dixon-plot). The measurements were performed in triplicate and only those lines having a correlation coefficient of at least 0.95 were used for determination of the Ki value.
Several peptides (cfr. table) were incubated with purified prolyl oligopeptidase. The compounds were dissolved in H2 O. The IC50 value was determined as previously described apart from the preincubation which was deleted. […]

[5] = Functional stability of DPPIV inhibitors in the reaction medium (buffer); assay type: physicochemical; details: 50 mM TRIS buffer pH 8.3, 37° C.
Procedure: (§3) To determine the functional stability of the inhibitors in the reaction medium, a 10 mM stock solution in DMSO was diluted 50-fold in 50 mM TRIS buffer pH 8.3 and incubated at 37° C. To determine the functional stability in plasma, a 50 mM stock solution in DMSO was diluted 50-fold in fresh or freshly frozen citrated plasma from a healthy donor and incubated at 37° C. At specific time intervals an aliquot was withdrawn, added to an equal volume of DPPIV diluted in buffer or to an equal volume of plasma and the kinetics of inactivation were determined as described under b). The reduction in observed pseudo-first order rate constant is a measure for the amount of functional inhibitor lost during the incubation and allowed to estimate the half-life of the inhibitors in buffer and plasma. The following table lists the results.

[6] = Functional stability of DPPIV inhibitors in human citrated plasma; assay type: in vitro ADME; details: 37° C.
Procedure: as §3

[7] = biological target: T3, purified human platelet prolyl oligopeptidase (Homo sapiens, UniProt P48147); test: In vitro inhibition of PEP; assay type: biochemical; details: for IC50: 20 min preincubation at 37° C., substrate Z-Gly-Pro-AMC; for Ki: Dixon-plot
T3 construct: purified human platelet prolyl oligopeptidase; from tissue; host or cells: human thrombocytes (platelets)
T3 sequence (P48147 1-710): T2 sequence (P48147 1-710)
Procedure: as §2

[8] = 1 hour preincubation at room temperature, substrate Gly-Pro-4-Me-2-naphtylamine.HCl, Tris.HCl pH 8.3, 37° C., inhibitory diastereoisomer unless marked *, read-out: IC50
[9] = peptides dissolved in H2O, no preincubation, read-out: IC50

CC[C@H](C)[C@H](N)C(=O)N1CCCC1P(=O)(Oc1ccccc1)Oc1ccccc1.Cl (stereo partly drawn) [Ile-Pro-^P -(OPh)2, Diphenyl (S,R)-1-[(S)-isoleucinyl]pyrrolidine-2-phosphonate hydochloride]
IC50 (DPPIV [1]; [8]): 350 µM | K+ (second order rate constant) (DPPIV [2]): 2.3 M⁻¹ s⁻¹ | stability of the adduct at room temperature (DPPIV [3]): > 3 weeks

RPPGFSPFR [Bradykinin]
IC50 [4]: 7 µM

N[C@@H](CC1CCCCC1)C(=O)N1CCC[C@H]1P(=O)(Oc1ccccc1)Oc1ccccc1 [Cyclohexylalanine-Pro^P -(OPh)2, Diphenyl (R)-1-[(S)-cyclohexylalanyl]pyrrolidine-2-phosphonate hydrochloride]
t1/2 in buffer [5]: 4.5 ± 0.8 h | t1/2 in plasma [6]: 18 ± 6 min

Cl.N[C@@H](Cc1ccccc1)C(=O)N1CCC[C@H]1P(=O)(Oc1ccccc1)Oc1ccccc1 [Phe-Pro^P -(OPh)2, Diphenyl (R)-1-[(S)-phenylalanyl]pyrrolidine-2-phosphonate hydrochloride]
IC50 (DPPIV [1]): 70 µM | stability of the adduct at room temperature (DPPIV [3]): > 3 weeks | t1/2 in buffer [5]: 6 ± 1 h | t1/2 in plasma [6]: 42 ± 6 min

C[C@H](N)C(=O)N1CCCC1P(=O)(Oc1ccccc1)Oc1ccccc1.Cl (stereo partly drawn) [Ala-Pro-(OPh)2, Diphenyl (S,R)-1-[(S)-alanyl]pyrrolidine-2-phosphonate hydrochloride]
IC50 (DPPIV [1]; [8]): 2000 µM | K+ (second order rate constant) (DPPIV [2]): 0.7 M⁻¹ s⁻¹ | stability of the adduct at room temperature (DPPIV [3]): > 4 weeks

O=C([C@@H]1CCCN1C(=O)OCc1ccccc1)N1CCC(F)C1 (stereo partly drawn) [Z-Pro-3-fluoropyrrolidine, 1-[N-Benzyloxycarbonyl-L-propyl]-3(R,S)-fluoropyrrolidine]
inhibitory activity on PEP (in words) [7]: particularly active inhibitor | IC50 [7]: 450 nM | Ki [7]: 100 nM

CSCC[C@H](NC(=O)[C@H](CC(C)C)NC(=O)CNC(=O)[C@H](Cc1ccccc1)NC(=O)[C@H](Cc1ccccc1)NC(=O)[C@H](CCC(N)=O)NC(=O)[C@H](CCC(N)=O)NC(=O)[C@@H]1CCCN1C(=O)[C@H](CCCCN)NC(=O)[C@@H]1CCCN1C(=O)[C@@H](N)CCCN=C(N)N)C(N)=O [Substance P]
IC50 [4]: 163 µM

O=C(C1CCCN1C(=O)OCc1ccccc1)N1CCC1 (stereo not drawn) [Z-Pro-azetidine]
IC50 [7]: 3000 nM | Ki [7]: 2500 nM

Cl.Cl.N=C(N)NCCC[C@H](N)C(=O)N1CCCC1P(=O)(Oc1ccccc1)Oc1ccccc1 (stereo partly drawn) [(S)-Arg-(S,R)-Pro^P (OPh)2, Diphenyl (S,R)-1-[(S)-arginyl]pyrrolidine-2-phosphonate dihydrochloride]
t1/2 in buffer [5]: 2.6 ± 0.3 h | t1/2 in plasma [6]: 114 ± 12 min

CC[C@H](C)[C@H](NC(=O)[C@H](Cc1ccc(O)cc1)NC(=O)[C@@H](NC(=O)[C@H](CCCNC(=N)N)NC(=O)[C@@H](N)CC(=O)O)C(C)C)C(=O)N[C@@H](Cc1c[nH]cn1)C(=O)N1CCC[C@H]1C(=O)O [Angiotensin (1-7)]
IC50 [4, 9]: 750 µM

O=C(NC(Cc1ccccc1)C(=O)N1CCC1)OCc1ccccc1 (stereo not drawn) [Z-Phe-azetidine]
IC50 [7]: 30000 nM

Cl.N[C@@H](Cc1ccc(F)cc1)C(=O)N1CCC[C@H]1P(=O)(Oc1ccccc1)Oc1ccccc1 [pF-Phe-Pro^P -(OPh)2, Diphenyl (R)-1-[(S)-p-fluorophenylalanyl]pyrrolidine-2-phosphonate hydrochloride]
IC50 (DPPIV [1]): 100 µM | stability of the adduct at room temperature (DPPIV [3]): > 4 weeks | t1/2 in buffer [5]: 8.9 ± 0.1 h | t1/2 in plasma [6]: 42 ± 6 min

CC[C@H](C)[C@H](N)C(=O)N1CCC[C@H]1P(=O)(Oc1ccccc1)Oc1ccccc1.Cl [(S)-Ile-(R)-Pro^P (OPh)2, Diphenyl (R)-1-[(S)-isoleucinyl]pyrrolidine-2-phosphonate hydochloride]
t1/2 in buffer [5]: 10 ± 5 h | t1/2 in plasma [6]: 84 ± 54 min

CC[C@H](C)[C@H](NC(=O)[C@H](Cc1ccc(O)cc1)NC(=O)[C@@H](NC(=O)[C@H](CCCNC(=N)N)NC(=O)[C@@H](N)CC(=O)O)C(C)C)C(=O)N[C@@H](Cc1cnc[nH]1)C(=O)N1CCC[C@H]1C(=O)N[C@@H](Cc1ccccc1)C(=O)O [Angiotensin II]
IC50 [4, 9]: 25 µM

Cl.N[C@@H](Cc1ccccc1)C(=O)N1CCC[C@@H]1P(=O)(Oc1ccccc1)Oc1ccccc1 [AB22, Diphenyl (S)-1-[(S)-phenaylalyl]pyrrolidine-2-phosphonate hydrochloride]
inhibitory activity on DPPIV (in words) (DPPIV [1]): inactive

O=C(C1CSCN1C(=O)OCc1ccccc1)N1CCC1 (stereo not drawn) [Z-thiopro-azetidine]
IC50 [7]: 1800 nM | Ki [7]: 5000 nM

CC[C@H](C)[C@H](N)C(=O)N1CCC(F)C1.O=C(O)C(F)(F)F (mixture of isomers) [Ile-3-Fluoro-pyrrolidine, 1-(L-Isoleucyl)-3(R,S)-fluoropyrrolidine trifluoroacetate]
inhibitory activity on DPPIV (in words) (DPPIV [1]): particularly active inhibitor

CC(C)(C)Oc1ccc(C[C@H](N)C(=O)N2CCCC2P(=O)(Oc2ccccc2)Oc2ccccc2)cc1 (stereo partly drawn) [O-tbutyl-Tyr-Pro^P -(OPh)2]
IC50 (DPPIV [1]; [8]): 1000 µM | K+ (second order rate constant) (DPPIV [2]): 0.5 M⁻¹ s⁻¹
